Data reported in PubChem BioAssay AID1963867 (Molecular Pharmacology Branch, DTP, NCI, 2024).

System: KRAS-mutant PDC tumor spheroid with HUVEC/MSC, viability
Assay: Anticancer human tumor 327498-153-R-J2-PDC patient-derived uterine carcinosarcoma cell line growth inhibition [KRAS2]
Conditions: for IC50: curve of first compound; for viability, T/C: stronger effect = lower value
Procedure, shortened: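 Combination screen of spheroid viability in tumor-cell co-cultures with endothelial (HUVEC) and mesenchymal stem cell stroma. Each agent was tested in half-log dilutions, topping at clinical Cmax or at 10 microM without a known Cmax.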

[1] = second compound 0.1 µM, first compound 0.0316 µM
[2] = second compound 0.1 µM, first compound 0.1 µM
[3] = second compound 0.1 µM, first compound 0.316 µM
[4] = second compound 0.1 µM, first compound 1 µM
[5] = second compound 0.1 µM, first compound 3.16 µM
[6] = second compound 0.316 µM, first compound 0.0316 µM
[7] = second compound 0.316 µM, first compound 0.1 µM
[8] = second compound 0.316 µM, first compound 0.316 µM
[9] = second compound 0.316 µM, first compound 1 µM
[10] = second compound 0.316 µM, first compound 3.16 µM
[11] = second compound 1 µM, first compound 0.0316 µM
[12] = second compound 1 µM, first compound 0.1 µM
[13] = second compound 1 µM, first compound 0.316 µM
[14] = second compound 1 µM, first compound 1 µM
[15] = second compound 1 µM, first compound 3.16 µM
[16] = second compound 3.16 µM, first compound 0.0316 µM
[17] = second compound 3.16 µM, first compound 0.1 µM
[18] = second compound 3.16 µM, first compound 0.316 µM
[19] = second compound 3.16 µM, first compound 1 µM
[20] = second compound 3.16 µM, first compound 3.16 µM
[21] = second compound 10 µM, first compound 0.0316 µM
[22] = second compound 10 µM, first compound 0.1 µM
[23] = second compound 10 µM, first compound 0.316 µM
[24] = second compound 10 µM, first compound 1 µM
[25] = second compound 10 µM, first compound 3.16 µM
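Also: spheroids exposed to agents for seven days before reading.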
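For viability, T/C in this document: 100% = DMSO vehicle wells so lower means fewer viable cells.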

SMILES | IC50 (second compound 0.1 µM) | IC50 (second compound 0.316 µM) | IC50 (second compound 1 µM) | IC50 (second compound 3.16 µM) | IC50 (second compound 10 µM) | viability, T/C [1] | viability, T/C [2] | viability, T/C [3] | viability, T/C [4] | viability, T/C [5] | viability, T/C [6] | viability, T/C [7] | viability, T/C [8] | viability, T/C [9] | viability, T/C [10] | viability, T/C [11] | viability, T/C [12] | viability, T/C [13] | viability, T/C [14] | viability, T/C [15] | further results
CC1COCCN1c1cc(-c2ccnn2C)c2ccnc(-c3ccn[nH]3)c2n1 (stereo not given) + CNCc1ccccc1-c1csc(C(C)Nc2nc(C)nc3cc(OC)c(OC)cc23)c1 | 23.5 nM | 17.9 nM | 15 nM | < 10 nM | < 10 nM | 39.5% | 9.19% | 5.57% | 5.53% | 5.04% | 33.8% | 11.5% | 5.05% | 5.87% | 5.3% | 26.7% | 9.86% | 4.09% | 3.98% | 1.03% | viability, T/C (second compound 0.1 µM, first compound 0.01 µM): 80%; viability, T/C (second compound 0.316 µM, first compound 0.01 µM): 66.6%; viability, T/C (second compound 1 µM, first compound 0.01 µM): 62.9%; viability, T/C (second compound 3.16 µM, first compound 0.01 µM): 0.09%; viability, T/C [16]: 0.07%; viability, T/C [17]: 0.05%; viability, T/C [18]: 0.71%; viability, T/C [19]: 0.03%; viability, T/C [20]: 0.13%; viability, T/C (second compound 10 µM, first compound 0.01 µM): 0.13%; viability, T/C [21]: 0.13%; viability, T/C [22]: 0.13%; viability, T/C [23]: 0.12%; viability, T/C [24]: 0.12%; viability, T/C [25]: 0.21%
CC1OCC2(CCN(c3cnc(Sc4ccnc(N)c4Cl)c(N)n3)CC2)C1N (stereo not given) + CNCc1ccccc1-c1csc(C(C)Nc2nc(C)nc3cc(OC)c(OC)cc23)c1 | 136 nM | 109 nM | 100 nM | < 31.6 nM | < 31.6 nM | 75.4% | 52.6% | 41.2% | 34.2% | 30.9% | 61.4% | 51.8% | 36% | 31% | 28% | 65.7% | 50.1% | 39.9% | 31.9% | 31.7% | viability, T/C (second compound 0.1 µM, first compound 10 µM): 27.7%; viability, T/C (second compound 0.316 µM, first compound 10 µM): 24.6%; viability, T/C (second compound 1 µM, first compound 10 µM): 27.5%; viability, T/C [16]: 0.11%; viability, T/C [17]: 0.09%; viability, T/C [18]: 0.08%; viability, T/C [19]: 0.06%; viability, T/C [20]: 0.06%; viability, T/C (second compound 3.16 µM, first compound 10 µM): 0.17%; viability, T/C [21]: 0.13%; viability, T/C [22]: 0.18%; viability, T/C [23]: 0.13%; viability, T/C [24]: 0.43%; viability, T/C [25]: 0.13%; viability, T/C (second compound 10 µM, first compound 10 µM): 0.22%
